Assays:
[1] = target: T1, FKBP12-HA (wild-type) / GST-mTOR FRB domain ternary complex (Homo sapiens, UniProt P42345+P62942); test: TR-FRET ternary complex formation, wild-type FKBP12 with mTOR FRB; assay type: binding; conditions: wild-type FKBP12 + mTOR FRB, n = 3, read-out: EC50 of ternary complex induction, wild-type FKBP12
T1 construct: recombinant HA-tagged wild-type or V55G mutant FKBP12 with GST-tagged mTOR FRB domain; 8xHis (cleaved yes); made in house; host or cells: E. coli BL21 (DE3) for FKBP12
Protocol: TR-FRET assay was performed using recommended conditions from Cisbio with slight modifications. FKBP12-HA, FKBP12 V55G-HA, and GST-mTORFRB recombinant proteins were each diluted to 5 nM in assay buffer (20 mM HEPES pH 7.5, 150 mM NaCl, 0.05% Tween-20, 0.1% bovine serum albumin [BSA], 0.5 mM dithiothreitol [DTT]). Anti-GST-Tb (Cisbio) and Anti-HA-XL665 (Cisbio) were diluted to 0.625 µg/mL and 5 µg/mL, respectively, in assay buffer. Rapa* compounds and FK506 were diluted to 50 µM and rapamycin to 5 µM in assay buffer containing 5% DMSO, and threefold serial dilution series were made from these solutions. […] Time-resolved fluorescence was read on a Tecan Spark 20M plate reader with the following parameters: Lag time: 60 µs; Integration time: 500 µs; Read A: Excitation filter 320 ([25]) nm, Emission filter 610 ([25]) nm, Gain 130; Read B: Excitation filter 320 ([25]) nm, Emission filter 665 ([8]) nm, Gain 165. […]
Human FKBP12 coding sequence was cloned a pET-47b bacterial expression vector using Gibson assembly and a C-terminal HA-tag was added by QuickChange PCR. FKBP12 proteins were expressed as 8xHis fusions in E. coli BL21 (DE3) cells. […]
PAMPA was performed by Quintara Discovery as described previously (2). Compounds were analyzed at 100 µM in PBS and measured using liquid chromatography-mass spectrometry (LC-MS) after 5 hours. […]

[2] = test system: Drosophila larvae (w1118 control and FKBP12 V55G transgenic); test: Drosophila larval development (pupae 9 d after egg laying); assay type: in vivo
Protocol: All Drosophila stocks and crosses were maintained on standard cornmeal-molasses food at 25 °C using a 12-h light/dark cycle. To generate UAS-FKBP12 V55G-HA transgenic lines, human FKBP12 V55G-HA ORF was cloned into a pUAST-attB vector between EcoR-I and Xho-I restriction sites. This construct was then integrated into an attB site using phiC31 integrase with the assistance of Rainbow Transgenic Flies, Inc. The driver stocks da-GAL4 (ubiquitous), elav-GAL4 and nSyb-GAL4 (neuronal-specific), Mef2-GAL4 and mhc-GAL4 (musculature), and 2–286-GAL4 and phm-GAL4 (ring-gland-specific) were obtained from Bloomington Drosophila Stock Center. The crossing schemes used in this study are depicted in SI Appendix, Fig. S11. For rapamycin or Rapa*3Z related experiments, fly food was prepared freshly 24 h before each experiment.
Fly food containing ethanol vehicle was used as control. […] Three biological replicates were used for each experiment. Data were analyzed using Prism 9.0 (GraphPad).

[3] = Bidirectional Caco-2 cell permeability; assay type: in vitro ADME; conditions: human, LC-MS
Protocol: PAMPA and Caco-2 membrane permeability assays […]
MS) after 5 hours. Bidirectional Caco-2 cell permeability assay was performed by Quintara
Discovery. Compounds were analyzed at 10 µM and measured by LC-MS after 1 hour.

T1 sequence (P62942 whole entry, the tested form may be a part): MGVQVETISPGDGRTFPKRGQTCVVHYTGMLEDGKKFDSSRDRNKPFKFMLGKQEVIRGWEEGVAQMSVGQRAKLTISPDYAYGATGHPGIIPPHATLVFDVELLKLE
T1 sequence (P42345 2012-2144 limits assumed): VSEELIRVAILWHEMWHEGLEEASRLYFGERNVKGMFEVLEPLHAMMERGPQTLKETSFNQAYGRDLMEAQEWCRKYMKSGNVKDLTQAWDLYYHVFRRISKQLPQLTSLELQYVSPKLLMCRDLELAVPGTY

CCO/N=C1/C[C@@H]([C@H](C)C[C@@H]2CC[C@@H](O)[C@H](OC)C2)OC(=O)[C@@H]2CCCCN2C(=O)C(=O)[C@]2(O)O[C@@H](CC[C@H]2C)C[C@H](OC)/C(C)=C/C=C/C=C/[C@@H](C)C[C@@H](C)C(=O)[C@H](OC)[C@H](O)/C(C)=C/[C@H]1C [Rapa*-3Z]
EC50 [1]: 639 nM | Larval-to-pupal transition, FKBP12 V55G in ring gland (independent driver) ([2]; 2-286-GAL4, 100 µM, 9 d): nearly eliminated the larval-to-pupal transition | Dose necessary for complete inhibition of larval development ([2]; FKBP12 V55G animals (ubiquitous da-GAL4), in food, 9 d after egg laying): 100 µM | Larval-to-pupal transition, FKBP12 V55G in musculature and nervous system (independent drivers) ([2]; Mef2-GAL4 and elav-GAL4, 100 µM, 9 d): significant, but lesser, inhibition | Effect on larval development, ubiquitous FKBP12 V55G expression ([2]; da-GAL4 > FKBP12 V55G, 100 µM): potently inhibited larval development | Pupal formation, FKBP12 V55G in musculature and nervous system ([2]; mhc-GAL4 and nSyb-GAL4, 100 µM, 9 d after egg laying): similar, but less severe, inhibition of pupal formation | Pupal formation, FKBP12 V55G in ring gland ([2]; phm-GAL4, 100 µM, 9 d after egg laying): failed to pupate | Effect on larval development in control flies at 300 and 400 µM ([2]; w1118, 300 and 400 µM, 14 days after egg laying): no influence on larval development | Effect on larval development in wild-type animals ([2]; wild-type (w1118) larvae, compound in food): no effect | Papp A→B at 1 h, 10 µM [3]: < 0.5 ×10⁻⁶ cm/s | Papp B→A at 1 h, 10 µM [3]: 1 ×10⁻⁶ cm/s

Source: article PMC9499525, “Tissue-restricted inhibition of mTOR using chemical genetics” (Proceedings of the National Academy of Sciences of the …, 2022)
